According to patent US20230181509A1, “THE USE OF DIFFUSION ENHANCING COMPOUNDS FOR TREATMENT OF VIRAL AND BACTERIAL INDUCED RESPIRATORY DISEASE” (DIFFUSION PHARMACEUTICALS LLC, priority 2020, published 2023):
Where two headings read alike, the source gives them in different places.

Assays:
[1] = after hemorrhagic shock in rats; cited from earlier work
[2] = cited from earlier work
[3] = Absorption into the blood stream after intramuscular injection of TSC with gamma cyclodextrin; format: in vivo; details: injected intramuscularly, rats
Excerpt: The solutions need not be equal-molar.

[4] = Solubility of TSC in water with gamma-cyclodextrin; format: physicochemical; details: TSC and gamma-cyclodextrin
[5] = Solubility of TSC formulated with cyclodextrin and mannitol; format: physicochemical; details: formulated with a cyclodextrin and mannitol
Excerpt: A trans carotenoid such as TSC can be formulated with a cyclodextrin as noted above and a non-metabolized sugar such as mannitol (e.g. d-mannitol to adjust the osmotic pressure to be the same as that of blood). […] This solution can be added to isotonic saline or to other isotonic solutions in order to dilute it and still maintain the proper osmolality.

[6] = cited from earlier work; remark: listed apart in the source

| SMILES | whole-body oxygen consumption [1] | oxygen levels, arterial and tissue ([2]; hypoxemic states) | oxygen levels, arterial and tissue ([2]; normoxic states) | absorption into the blood stream [3] | TSC concentration reached in aqueous solution [4] | TSC concentration of solutions that can be made [5] | diffusivity of oxygen through plasma ([6]; plasma) | diffusivity of oxygen in water [6] |
| --- | --- | --- | --- | --- | --- | --- | --- | --- |
| CC(/C=C/C=C(\C)C(=O)[O-])=C\C=C\C=C(C)\C=C\C=C(/C)C(=O)[O-].[Na+].[Na+] [TSC, trans sodium crocetinate] | increase whole-body oxygen consumption | increases oxygen levels | does not | Absorption is quick | ≤ 44 milligrams of TSC per ml of solution | over 20 mg TSC/ml of solution | increases the diffusivity of oxygen through plasma | increase the diffusivity of oxygen in water |
| CC(/C=C/C=C(\C)C(=O)O)=C\C=C\C=C(C)\C=C\C=C(/C)C(=O)O [crocetin, reference compound] |  |  |  |  |  |  |  | increase the diffusivity of oxygen in water |
